The record followed here is patent US9255100B2 (BAYER INTELLECTUAL PROPERTY GMBH, priority 2010, dated 2016).

Structures are written as SMILES.

This assay deals with T1, N-terminally GST-tagged human full length recombinant Mps-1 kinase (Homo sapiens, UniProt P33981).
T1 construct: N-terminally GST-tagged human full length recombinant Mps-1 kinase; purchased Invitrogen, Karslruhe, Germany PV4071
T1 sequence (P33981 1-857): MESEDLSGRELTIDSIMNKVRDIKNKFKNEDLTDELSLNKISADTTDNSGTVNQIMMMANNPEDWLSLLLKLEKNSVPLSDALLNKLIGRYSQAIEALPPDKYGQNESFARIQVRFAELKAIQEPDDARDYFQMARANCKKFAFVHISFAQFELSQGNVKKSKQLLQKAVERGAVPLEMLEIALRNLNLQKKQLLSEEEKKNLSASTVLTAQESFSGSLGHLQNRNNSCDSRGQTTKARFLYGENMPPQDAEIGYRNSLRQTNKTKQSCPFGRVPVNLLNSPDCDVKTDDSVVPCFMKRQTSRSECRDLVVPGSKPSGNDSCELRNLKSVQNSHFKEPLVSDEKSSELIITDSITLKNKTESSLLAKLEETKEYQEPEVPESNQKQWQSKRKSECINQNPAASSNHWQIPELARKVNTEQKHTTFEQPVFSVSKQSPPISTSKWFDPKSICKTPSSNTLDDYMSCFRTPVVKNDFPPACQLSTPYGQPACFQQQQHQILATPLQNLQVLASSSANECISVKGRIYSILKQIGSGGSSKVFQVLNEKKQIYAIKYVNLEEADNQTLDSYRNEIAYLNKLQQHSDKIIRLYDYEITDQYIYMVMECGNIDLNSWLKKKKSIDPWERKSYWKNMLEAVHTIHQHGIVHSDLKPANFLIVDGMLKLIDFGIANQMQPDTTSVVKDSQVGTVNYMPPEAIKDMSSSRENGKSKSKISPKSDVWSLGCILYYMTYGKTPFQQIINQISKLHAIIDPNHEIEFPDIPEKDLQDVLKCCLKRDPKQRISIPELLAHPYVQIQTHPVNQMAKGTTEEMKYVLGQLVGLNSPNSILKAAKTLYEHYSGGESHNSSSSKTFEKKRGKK
As to the kind of experiment: Mps-1 kinase assay (TR-FRET). The format is biochemical. Conditions: Mps1 IC50 [nM], 10 μM ATP, 1 μM peptide substrate, 60 min at 22° C. The gist of the method: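 Read-out: TR-FRET from Europium-labelled anti-phospho(Ser/Thr) antibody to SA-XLent after 1 h detection incubation at 22° C. Inhibition of kinase activity measured.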
Background: TR-FRET usually uses a lanthanide donor and a delayed reading to cut background.
For the compound `Cc1cc(F)cc(Oc2cc(NCC(C)(C)O)c3ncc(-c4ccc(C(=O)NC5CC5)c(C)c4)n3n2)c1` [Example 87, N-cyclopropyl-4-{6-(3-fluoro-5-methylphenoxy)-8-[(2-hydroxy-2-methylpropyl)amino]imidazo[1,2-b]pyridazin-3-yl}-2-methylbenzamide], the IC50 (usually the midpoint of a concentration-inhibition curve) turned out to be 0.2 nM.

With `Cc1cc(-c2cnc3c(NCC(F)F)cc(Oc4cccc(F)c4)nn23)ccc1C(=O)NC1CC1` [Example 512, N-cyclopropyl-4-{8-[(2,2-difluoro-ethyl)amino]-6-(3-fluoro-phenoxy)imidazo[1,2-b]pyridazin-3-yl}-2-methylbenzamide], the IC50 was found to be 0.1 nM.

With `COc1ccc(Sc2cc(NCCC(F)(F)F)c3ncc(-c4ccc(C(=O)NC5CC5)c(C)c4)n3n2)cc1` [Example 227, N-cyclopropyl-4-{6-[(4-methoxyphenyl)sulfanyl]-8-[(3,3,3-trifluoropropyl)amino]imidazo[1,2-b]pyridazin-3-yl}-2-methylbenzamide], the IC50 amounted to 0.2 nM.

Turning to `Cc1cc(-c2cnc3c(NCCC(F)(F)F)cc(Nc4ccc(F)c(F)c4)nn23)ccc1C(=O)NC1CC1` [Example 373, N-cyclopropyl-4-{6-[(3,4-difluorophenyl)amino]-8-[(3,3,3-trifluoropropyl)amino]imidazo[1,2-b]pyridazin-3-yl}-2-methylbenzamide], the IC50 stood at 0.2 nM.

As for `Cc1cc(-c2cnc3c(NCC(C)(C)O)cc(-c4ccccc4F)nn23)ccc1C(=O)NC1CC1` [Example 233, N-cyclopropyl-4-{6-(2-fluorophenyl)-8-[(2-hydroxy-2-methylpropyl)amino]imidazo[1,2-b]pyridazin-3-yl}-2-methylbenzamide], the IC50 is 1.7 nM.

As for `CC(C)CNc1cc(-c2ccncc2)nn2c(-c3ccc(-c4cnc(C5CC5)[nH]4)cc3)cnc12` [Example 3, 3-[4-(2-Cyclopropyl-1H-imidazol-5-yl)phenyl]-N-isobutyl-6-(pyridin-4-yl) imidazo[1,2-b]pyridazin-8-amine], the IC50 came to 13.7 nM.

Take `Cc1cc(-c2cnc3c(NCC4CCS(=O)(=O)CC4)cc(Sc4cccc(F)c4)nn23)ccc1C(=O)NC1CC1` [Example 301, N-cyclopropyl-4-(8-{[(1,1-dioxidotetrahydro-2H-thiopyran-4-yl)methyl]amino}-6-[(3-fluorophenyl)sulfanyl]imidazo[1,2-b]pyridazin-3-yl)-2-methylbenzamide]: the IC50 was 0.2 nM.

Turning to `Cc1cc(F)cc(Sc2cc(NCC(C)(C)O)c3ncc(-c4ccc(C(=O)NC5CC5)c(C)c4)n3n2)c1` [Example 67, N-cyclopropyl-4-{6-[(3-fluoro-5-methylphenyl)sulfanyl]-8-[(2-hydroxy-2-methylpropyl)amino]imidazo[1,2-b]pyridazin-3-yl}-2-methylbenzamide], the IC50 was determined as 0.1 nM.

On to `Cc1cc(-c2cnc3c(NCCC(F)(F)F)cc(SCCC(C)(C)C)nn23)ccc1C(=O)NC1CC1` [Example 226, N-cyclopropyl-4-{6-[(3,3-dimethylbutyl)sulfanyl]-8-[(3,3,3-trifluoropropyl)amino]imidazo[1,2-b]pyridazin-3-yl}-2-methylbenzamide], for which the IC50 came to 1.3 nM.

Consider `Cc1cc(-c2cnc3c(NCC4CCOC4)cc(-c4ccccc4CO)nn23)ccc1C(=O)NC1CC1` (racemic) [Example 345, (RS)-N-cyclopropyl-4-{6-[2-(hydroxy-methyl)phenyl]-8-[(tetrahydro-furan-3-ylmethyl)amino]imidazo [1,2-b]pyridazin-3-yl}-2-methyl-benzamide], for which the IC50 was 3 nM.

Regarding `Cc1cc(-c2cnc3c(NCCC(F)(F)F)cc(Sc4ccc(C(F)(F)F)cc4)nn23)ccc1C(=O)NC1CC1` [Example 247, N-cyclopropyl-2-methyl-4-(6-{[4-(trifluoromethyl)phenyl]sulfanyl}-8-[(3,3,3-trifluoropropyl)amino]imidazo[1,2-b]pyridazin-3-yl)benzamide], the IC50 came out at 1.7 nM.

With `CC(C)CNc1cc(-c2ccc3[nH]c(=O)[nH]c3c2)nn2c(-c3ccc(C(=O)NC4CC4)cc3)cnc12` [Example 151, N-cyclopropyl-4-{8-[(2-methylpropyl)amino]-6-(2-oxo-2,3-dihydro-1H-benzimidazol-5-yl)imidazo[1,2-b]pyridazin-3-yl}benzamide], the IC50 turned out to be 3.1 nM.

Take `Cc1ccc(Sc2cc(NCCC(F)(F)F)c3ncc(-c4ccc(C(=O)NC5CC5)c(C)c4)n3n2)c(F)c1` [Example 362, N-cyclopropyl-4-{6-[(2-fluoro-4-methylphenyl)sulfanyl]-8-[(3,3,3-trifluoropropyl)amino]imidazo[1,2-b]pyridazin-3-yl}-2-methylbenzamide]: the IC50 amounted to 0.2 nM.

As for `COc1ccc(Nc2cc(NCCC(F)(F)F)c3ncc(-c4ccc(C(=O)NC5CC5)c(C)c4)n3n2)cn1` [Example 429, N-cyclopropyl-4-{6-[(6-methoxypyridin-3-yl)amino]-8-[(3,3,3-trifluoropropyl)amino]imidazo[1,2-b]pyridazin-3-yl}-2-methylbenzamide], the IC50 came out at 0.1 nM.

Regarding `CC(C)CNc1cc(-c2cccc(Cl)c2)nn2c(-c3ccc(C(=O)NC4CC4)cc3)cnc12` [Example 124, 4-{6-(3-Chlorophenyl)-8-[(2-methylpropyl)amino]imidazo[1,2-b]pyridazin-3-yl}-N-cyclopropylbenzamide], the IC50 turned out to be 4.7 nM.

`CNC(=O)c1ccc(-c2cnc3c(NCc4cccs4)cc(Cl)nn23)cc1Cl` [Example 186, 2-Chloro-4-{6-chloro-8-[(thiophen-2-ylmethyl)amino]imidazo[1,2-b]pyridazin-3-yl}-N-methylbenzamide]: the IC50 is 338 nM.

With `CNC(=O)c1ccc(-c2cnc3c(NCCN4CCOCC4)cc(Oc4cc(F)ccc4C)nn23)cc1C` [Example 566, 4-[6-(5-fluoro-2-methylphenoxy)-8-{[2-(morpholin-4-yl)ethyl]amino}imidazo[1,2-b]pyridazin-3-yl]-N,2-dimethylbenzamide], the IC50 worked out at 1.7 nM.

With `CC(C)CNc1cc(-c2ccnc3ccccc23)nn2c(-c3ccc(C(=O)NC4CC4)cc3)cnc12` [Example 112, N-cyclopropyl-4-{8-[(2-methylpropyl)amino]-6-(quinolin-4-yl)imidazol [1,2-b]pyridazin-3-yl} benzamide], the IC50 came out at 5.1 nM.

Take `Cc1cc(-c2cnc3c(NCC(C)(C)O)cc(-c4ccc(F)cc4)nn23)ccc1C(=O)NC1CC1` [Example 7, N-cyclopropyl-4-{6-(4-fluorophenyl)-8-[(2-hydroxy-2-methylpropyl)amino]imidazo[1,2-b]pyridazin-3-yl}-2-methylbenzamide]: the IC50 amounted to 1.2 nM.

Consider `COc1ccccc1-c1cc(NCC(C)C)c2ncc(-c3ccc(C(=O)NC4CC4)cc3)n2n1` [Example 129, N-cyclopropyl-4-{6-(2-methoxyphenyl)-8-[(2-methylpropyl)amino]imidazo[1,2-b]pyridazin-3-yl}benamide], for which the IC50 turned out to be 3.3 nM.

Turning to `CCOc1ccc(-c2cc(NCC(C)(C)O)c3ncc(-c4ccc(C(=O)NC5CC5)c(C)c4)n3n2)cn1` [Example 158, N-cyclopropyl-4-{6-(6-ethoxypyridin-3-yl)-8-[(2-hydroxy-2-methylpropyl)amino]imidazo[1,2-b]pyridazin-3-yl}-2-methylbenzamide], the IC50 worked out at 6.4 nM.

Take `Cc1cc(-c2cnc3c(NCCC(F)(F)F)cc(Oc4ccccc4)nn23)ccc1C(=O)NC1CC1` [Example 77, N-cyclopropyl-2-methyl-4-{6-phenoxy-8-[(3,3,3-trifluoropropyl)amino]imidazo[1,2-b]pyridazin-3-yl}benzamide]: the IC50 was less than 0.7 nM.

Regarding `CCNC(=O)c1ccc(-c2cnc3c(NCCC(F)(F)F)cc(Oc4ccc(O)cc4F)nn23)cc1C` [Example 561, N-ethyl-4-{6-(2-fluoro-4-hydroxyphenoxy)-8-[(3,3,3-trifluoropropyl)amino]imidazo[1,2-b]pyridazin-3-yl}-2-methylbenzamide], the IC50 came out at 0.6 nM.

Consider `CCNC(=O)c1ccc(-c2cnc3c(NCC4CCOCC4)cc(Oc4cc(F)ccc4C)nn23)cc1C` [Example 599, N-ethyl-4-{6-(5-fluoro-2-methylphenoxy)-8-[(tetrahydro-2H-pyran-4-ylmethyl)a-mino]imidazo[1,2-b]pyridazin-3-yl}-2-methylbenzamide], for which the IC50 was 1 nM.

Take `CNc1ccccc1Oc1cc(NCCN2CCOCC2)c2ncc(-c3ccc(C(=O)NC4CC4)c(C)c3)n2n1` [Example 538, N-cyclopropyl-2-methyl-4-(6-[2-(methylamino)phenoxy]-8-{[2-(morpholin-4-yl)ethyl]amino}imidazo[1,2-b]pyridazin-3-yl)benzamide]: the IC50 is 0.8 nM.
